ChEMBL document CHEMBL3580558, “Salternamides A-D from a Halophilic Streptomyces sp. Actinobacterium” (J Nat Prod, 2015)

Key:
K562 = assay: Antiproliferative activity against human K562 cells after 3 days by sulforhodamine B assay; assay type: functional, cell-based; conditions: K562, 72 h
[1] = Antiproliferative activity against human SNU638 cells after 3 days by sulforhodamine B assay; assay type: functional, cell-based; conditions: SNU-638, 72 h
[2] = Antiproliferative activity against human SKHEP1 cells after 3 days by sulforhodamine B assay; assay type: functional, cell-based; conditions: SK-HEP1, 72 h
MDA-MB-231 = assay: Antiproliferative activity against human MDA-MB-231 cells after 3 days by sulforhodamine B assay; assay type: functional, cell-based; conditions: MDA-MB-231, 72 h
A549 = assay: Antiproliferative activity against human A549 cells after 3 days by sulforhodamine B assay; assay type: functional, cell-based; conditions: A549, 72 h
[3] = Inhibition of porcine cerebral cortex Na+/K+ ATPase incubated at 37 degC for 30 mins using 3-O-methylfluorescein phosphate and […] by fluorometry; assay type: tissue-based, Sus scrofa
HCT-116 = assay: Antiproliferative activity against human HCT116 cells after 3 days by sulforhodamine B assay; assay type: functional, cell-based; conditions: HCT-116, 72 h

| IC50 (K562) [µM] | IC50 (MDA-MB-231) [µM] | IC50 (A549) [µM] | IC50 ([3]; read-out: IC50) [µM] | IC50 (HCT-116) [µM] | IC50 [3] | SMILES | IC50 [1] [µM] | IC50 [2] [µM] |
| --- | --- | --- | --- | --- | --- | --- | --- | --- |
| 3.1 | 11 | 0.8 |  |  |  | COc1cc([C@@H]2c3cc4c(cc3[C@@H](O[C@@H]3O[C@@H]5CO[C@@H](C)O[C@H]5[C@H](O)[C@H]3O)[C@H]3COC(=O)[C@H]23)OCO4)cc(OC)c1O [ETOPOSIDE] | 0.5 | 1.1 |
| 59 | 92 | > 100 | 30 | 34 |  | CC(C)=C[C@H](C)C[C@H](C)/C=C(\C)C(=O)NC1=C[C@](O)(CCCCC(=O)O)[C@@H](O)CC1=O | 15 | 32 |
| > 100 | > 100 | > 100 | > 100 | > 100 |  | CC(C)=C[C@H](C)C[C@H](C)/C=C/C(=O)NC1=C[C@](O)(CCCCC(=O)O)[C@@H](O)CC1=O | > 100 | > 100 |
| > 100 | 27 | 82 |  | 55 | Not Active | CC(C)=C[C@H](C)C[C@H](C)/C=C/C(=O)NC1=C[C@](O)(CCCCC(=O)O)C=CC1=O | 27 | 56 |
| 8.9 | 8.9 | 36 | 62 | 0.96 |  | CC(C)=C[C@H](C)C[C@H](C)/C=C/C(=O)NC1=C[C@](O)(CCCCC(=O)O)C=C(Cl)C1=O | 0.96 | 2.7 |

| SMILES | IC50 (K562) [µM] | IC50 (MDA-MB-231) [µM] | IC50 (A549) [µM] | IC50 ([3]; read-out: IC50) [µM] | IC50 (HCT-116) [µM] | IC50 [3] | IC50 [1] [µM] | IC50 [2] [µM] |
| --- | --- | --- | --- | --- | --- | --- | --- | --- |
| C[C@@H]1O[C@@H](O[C@H]2C[C@@H](O)[C@]3(CO)[C@H]4[C@H](O)C[C@]5(C)[C@@H](C6=CC(=O)OC6)CC[C@]5(O)[C@@H]4CC[C@]3(O)C2)[C@H](O)[C@H](O)[C@H]1O [OUABAIN] |  |  |  | 3.8 |  |  |  |  |
